Laboratory results: patent US20260199383A1 (priority 2022, published 2026)
Values after ≈ are worked out from the molar mass of the structure shown. Read-outs that look alike come from different tables or passages of the source.

What was measured:
[1] = cited from earlier work
[2] = test system: CuFi-1 cells; conditions: cited from earlier work; for ASL pH / ΔpH: ref [1]; for ΔpH: vs vehicle control
[3] = test system: CuFi-1 cells; assay: Fluorescence microscopic assay of airway surface liquid (ASL) pH in CuFi-1 cells; assay type: cell-based, human
Description: Cell Lines and Growth Conditions. NuLi, CuFi-1, and CuFi-4 cells (Welsh Laboratory, University of Iowa) were grown from cryostock on Thermo Scientific BioLite Cell Culture Treated 75 cm^2 flasks. These flasks were previously coated with 4 mL of 60 μg/mL human placental collagen type IV (Sigma-Aldrich) for a minimum of 1 h at 37° C., rinsed twice with PBS, and then dried before seeding. The cells were cultured with 12 mL Bronchial Epithelial Cell Growth Medium (BEGM) BulletKit (Lonza CC-3170), which includes the basal medium and eight SingleQuots of supplements (bovine pituitary extract (BPE), 2 mL; hydrocortisone, 0.5 mL; hEGF, 0.5 mL; adrenaline, 0.5 mL; transferrin, 0.5 mL; insulin, 0.5 mL; retinoic acid, 0.5 mL; triiodothyronine, 0.5 mL). The gentamicin-AmB aliquot was discarded, and the medium was instead supplemented with 50 μg/mL penicillin-streptomycin (Corning Cellgro), 50 μg/mL gentamicin (Sigma-Aldrich G1397), and 2 μg/mL fluconazole (Sigma-Aldrich). […]
Fluorescence Microscopic Assay for Measurement of Airway Surface Liquid pH. […] Following dissolution in methanol, the AmB concentration in the stock suspension was measured in triplicate by absorbance spectroscopy. Concentrations were calculated from the absorbance at 406 nm (8406=164,000 M^−1 cm^−1) using Beer's law. […]
Small-diameter NuLi and CuFi cells were used for measurement of the ASL pH. […] ASL pH was measured 2 h later. […]

[4] = Solubility of AmB in aqueous media; assay type: physicochemical; conditions: 37° C.
[5] = test system: primary cultured airway epithelial cells from individuals with CF; conditions: Primary human CF, 2 μM, ref [1], cited from earlier work
[6] = test system: CuFi-4 cells; conditions: cited from earlier work
[7] = Particle size of wet-milled AmB suspensions (Malvern Mastersizer); assay type: physicochemical

**Q.** With `C[C@@H]1[C@H](O)[C@@H](C)/C=C/C=C/C=C/C=C/C=C/C=C/C=C/[C@H](O[C@@H]2O[C@H](C)[C@@H](O)[C@H](N)[C@@H]2O)C[C@@H]2O[C@](O)(C[C@@H](O)C[C@@H](O)[C@H](O)CC[C@@H](O)C[C@@H](O)CC(=O)O[C@H]1C)C[C@H](O)[C@H]2C(=O)O` [AmB, amphotericin B] as the compound, how does the “pKa amine group on the mycosamine ring” value [1] read?
**A.** 10.0

**Q.** What about the pKa carboxylate group [1] of the same compound?
**A.** 5.7

**Q.** And the “ASL pH” value ([2]; CuFi-1, 2 μM)?
**A.** 7.06

**Q.** What about the ΔpH ([2]; CuFi-1, 2 μM) of the same compound?
**A.** +0.18

**Q.** And the “ASL pH” value ([2]; CuFi-1, 50 μM)?
**A.** 6.80

**Q.** What about the ΔpH ([2]; CuFi-1, 50 μM) of the same compound?
**A.** +0.02

**Q.** What about the “effect on ASL pH” value ([3]; CuFi-1, 2 μM in perfluorocarbon vehicle) of the same compound?
**A.** effective

**Q.** And the “effect on ASL pH” value ([3]; CuFi-1, 50 μM AmB)?
**A.** not at a 50 μM AmB concentration

**Q.** What about the “solubility in Gamble's solution” value [4] of the same compound?
**A.** 0.2 µg/mL (≈ 0.216 µM)

**Q.** What about the “solubility in dilute Alveofact” value [4] of the same compound?
**A.** 0.2 µg/mL (≈ 0.216 µM)

**Q.** What about the solubility in water [4] of the same compound?
**A.** 0.5 µg/mL (≈ 0.541 µM)

**Q.** And the “ASL pH” value [5]?
**A.** 6.97

**Q.** What about the ΔpH ([5]; vs vehicle control) of the same compound?
**A.** +0.21

**Q.** For `CC(C)(C)c1cc(C(C)(C)C)c(NC(=O)c2c[nH]c3ccccc3c2=O)cc1O` [Ivacaftor, ivacaftor], which “ASL pH” value ([6]; CuFi-4, 2 μM, ref [1]) is on record?
**A.** 6.92

**Q.** And the ΔpH ([6]; CuFi-4, 2 μM, vs vehicle control, ref [1])?
**A.** +0.17

**Q.** What about the “increase in ASL pH” value ([6]; CuFi-4 cells) of the same compound?
**A.** about 0.2 pH units

**Q.** What about the “ASL pH” value ([2]; CuFi-1, 2 μM) of the same compound?
**A.** 6.82

**Q.** And the ΔpH ([2]; CuFi-1, 2 μM)?
**A.** +0.07

**Q.** And the “increase in ASL pH” value ([2]; CuFi-1 cells with homozygous ΔF508 mutations)?
**A.** minimal increase in ASL pH

**Q.** What does the source list for `C[C@@H]1[C@H](O)[C@@H](C)/C=C/C=C/C=C/C=C/C=C/C=C/C=C/[C@H](O[C@@H]2O[C@H](C)[C@@H](O)[C@H](N)[C@@H]2O)C[C@@H]2O[C@](O)(C[C@@H](O)C[C@@H](O)[C@H](O)CC[C@@H](O)C[C@@H](O)CC(=O)O[C@H]1C)C[C@H](O)[C@H]2C(=O)O` [′202, amphotericin B]?
**A.** Primary Particle Size X50 after wet-milling ([7]; 1 pass (15 kpsi)): 3.01 μm; Primary Particle Size X90 after wet-milling ([7]; 1 pass (15 kpsi)): 6.93 μm; Primary Particle Size X50 after wet-milling ([7]; 3 passes (15, 15, 20 kpsi)): 2.16 μm; Primary Particle Size X90 after wet-milling ([7]; 3 passes (15, 15, 20 kpsi)): 5.99 μm

**Q.** Which “Primary Particle Size X50 after wet-milling” value ([7]; 1 pass (15 kpsi)) does the source give for `C[C@@H]1[C@H](O)[C@@H](C)/C=C/C=C/C=C/C=C/C=C/C=C/C=C/[C@H](O[C@@H]2O[C@H](C)[C@@H](O)[C@H](N)[C@@H]2O)C[C@@H]2O[C@](O)(C[C@@H](O)C[C@@H](O)[C@H](O)CC[C@@H](O)C[C@@H](O)CC(=O)O[C@H]1C)C[C@H](O)[C@H]2C(=O)O` [′203, amphotericin B] here?
**A.** 1.14 μm

**Q.** What about the “Primary Particle Size X90 after wet-milling” value ([7]; 1 pass (15 kpsi)) of the same compound?
**A.** 2.46 μm

**Q.** And the “Primary Particle Size X50 after wet-milling” value ([7]; 3 passes (15, 15, 20 kpsi))?
**A.** 1.06 μm

**Q.** What about the “Primary Particle Size X90 after wet-milling” value ([7]; 3 passes (15, 15, 20 kpsi)) of the same compound?
**A.** 2.14 μm
